Laboratory results from paper PMC4714869 (Steroids, 2015).
“Also recorded” adds a separate entry of the source.

Legend:
human ERβ = human ERβ (Homo sapiens, UniProt Q92731); conditions: for RBA (mean ± SD) ERβ: RBA of estradiol set to 100%, 2 nM [3H]-estradiol, 18–24 h at 0 °C
[1] = system: PgR and GREB1 gene expression in MCF-7 cells; assay: Estrogen-responsive gene expression; assay type: cell-based; conditions: for PgR and GREB1 RNA level (gene stimulation): MCF-7, 10^−8 M E2, 10^−6 M Liq or Iso-Liq, 3×10^−6 M L1–L7, 24 h
[2] = system: E2-stimulated PgR and GREB1 gene expression in MCF-7 cells; assay: Inhibition of E2-stimulated PgR and GREB1 gene expression in MCF-7 cells; conditions: 3×10^−6 M component with 10^−9 M E2, 24 h
human ERα = target: T1, human ERα (Homo sapiens, UniProt P03372); assay: Competitive radiometric binding assay with [3H]-estradiol tracer, ERα; conditions: RBA of estradiol set to 100%; 2 nM [3H]-estradiol, 18–24 h at 0 °C
T1 sequence (P03372 1-595): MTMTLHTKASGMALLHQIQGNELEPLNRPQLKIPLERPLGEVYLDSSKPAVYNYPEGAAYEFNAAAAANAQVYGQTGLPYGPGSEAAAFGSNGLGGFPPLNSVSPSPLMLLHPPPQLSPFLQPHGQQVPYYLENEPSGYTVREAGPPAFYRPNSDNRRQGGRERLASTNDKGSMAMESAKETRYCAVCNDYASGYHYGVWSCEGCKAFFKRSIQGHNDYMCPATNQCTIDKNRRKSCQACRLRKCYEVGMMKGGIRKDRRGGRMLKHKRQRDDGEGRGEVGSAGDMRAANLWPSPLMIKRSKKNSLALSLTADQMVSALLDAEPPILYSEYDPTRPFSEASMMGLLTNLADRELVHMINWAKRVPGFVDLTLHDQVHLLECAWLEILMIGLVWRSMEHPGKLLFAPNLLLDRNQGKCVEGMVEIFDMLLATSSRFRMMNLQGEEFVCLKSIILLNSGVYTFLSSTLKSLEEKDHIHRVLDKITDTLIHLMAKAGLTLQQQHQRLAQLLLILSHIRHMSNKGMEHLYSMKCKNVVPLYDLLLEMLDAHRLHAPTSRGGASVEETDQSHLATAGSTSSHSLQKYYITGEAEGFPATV

[3] = system: Ki67 gene expression in MCF-7 cells; assay: Ki67 gene expression in MCF-7 cells by qPCR; conditions: for suppression of E2-elicited increase in Ki67 mRNA: 3×10^−6 M component with 10^−9 M E2, 24 h; for Ki67 RNA expression (stimulation): 10^−8 M E2, 10^−6 M Liq or Iso-Liq, 3×10^−6 M L1–L7, 24 h
MCF-7 cells = assay: Proliferation of MCF-7 cells; assay type: cell-based; conditions: 6 days; two highest concentrations 10^−6 and 3×10^−6 M
[4] = system: proteinase inhibitor 9 (PI9) expression in HepG2 + ERα cells; assay: PI9 gene expression in HepG2 cells stably expressing ERα; conditions: 10^−8 M EE2; 3×10^−6 M Liq, Iso-Liq, L1–L7; 24 h

Chain of human ERβ (Q92731 whole entry): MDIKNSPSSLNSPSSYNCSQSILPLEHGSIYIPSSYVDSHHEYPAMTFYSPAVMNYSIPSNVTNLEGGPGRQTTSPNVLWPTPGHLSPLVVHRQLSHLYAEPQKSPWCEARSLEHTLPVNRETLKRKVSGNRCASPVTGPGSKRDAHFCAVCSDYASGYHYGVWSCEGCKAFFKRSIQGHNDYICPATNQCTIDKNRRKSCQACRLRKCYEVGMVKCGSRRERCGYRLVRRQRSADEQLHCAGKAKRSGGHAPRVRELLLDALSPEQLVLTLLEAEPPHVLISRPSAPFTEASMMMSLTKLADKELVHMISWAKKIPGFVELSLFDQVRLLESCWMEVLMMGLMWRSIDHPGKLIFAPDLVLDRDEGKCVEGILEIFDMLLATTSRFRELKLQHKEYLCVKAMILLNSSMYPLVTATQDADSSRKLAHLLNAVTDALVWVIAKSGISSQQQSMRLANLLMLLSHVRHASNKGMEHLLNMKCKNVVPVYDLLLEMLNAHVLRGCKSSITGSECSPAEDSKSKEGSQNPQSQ

## COc1c(CC=C(C)C)c(O)cc2c1C[C@H](c1ccc(O)cc1O)CO2 [L5, Glyasperin C]
Human ERβ
  ERβ/ERα ratio of RBA: 11.1
  RBA (mean ± SD) ERβ: 0.111 ± 0.004%
Human ERβ; from RBA values
  preference for ERβ over ERα: greater than 10 fold
[1]
  PgR and GREB1 RNA level (gene stimulation): little or no change in gene expression; also recorded: did not stimulate expression of PgR or GREB1
[2]
  block of E2-stimulated GREB1 expression: only partially
  block of E2-stimulated PgR expression: almost fully
Human ERα
  RBA (mean ± SD) ERα: 0.010 ± 0.001%
[3]
  suppression of E2-elicited increase in Ki67 mRNA: not effective in suppressing
  Ki67 RNA expression (stimulation): did not stimulate Ki67 gene expression
MCF-7 cells
  stimulation of MCF-7 cell proliferation: inactive in eliciting elevation of cell proliferation

## O=C1C[C@@H](c2ccc(O)cc2)Oc2cc(O)ccc21 [Liq, Liquiritigenin, reference compound]
[1]
  PgR and GREB1 RNA level (gene stimulation): markedly increased
[4]
  PI9 expression in HepG2 + ERα cells: stimulated expression
Human ERα
  RBA (mean ± SD) ERα: <0.001%
MCF-7 cells
  stimulation of MCF-7 cell proliferation: stimulated cell proliferation quite strongly

## C#C[C@]1(O)CC[C@H]2[C@@H]3CCc4cc(O)ccc4[C@H]3CC[C@@]21C [EE2, ethinyl estradiol]
[4]
  PI9 expression in HepG2 + ERα cells: stimulated expression

## COc1c(CC=C(C)C)c(O)cc(O)c1-c1coc2cc(O)ccc2c1=O [L7, Glicoricone]
Human ERβ
  ERβ/ERα ratio of RBA: 2.4
  RBA (mean ± SD) ERβ: 0.019 ± 0.004%
[1]
  PgR and GREB1 RNA level (gene stimulation): little or no change in gene expression; also recorded: did not stimulate expression of PgR or GREB1
[2]
  block of E2-stimulated GREB1 expression: only partially; also recorded: most effective antagonist of GREB1 stimulation by E2
  block of E2-stimulated PgR expression: almost fully
Human ERα
  RBA (mean ± SD) ERα: 0.008 ± 0.001%
[3]
  suppression of E2-elicited increase in Ki67 mRNA: partially suppressed
  Ki67 RNA expression (stimulation): did not stimulate Ki67 expression
MCF-7 cells
  stimulation of MCF-7 cell proliferation: inactive in eliciting elevation of cell proliferation

## CC1(C)C=Cc2c(ccc3c2OC[C@@H](c2ccc(O)cc2O)C3)O1 [L1, Glabridin]
Human ERβ
  ERβ/ERα ratio of RBA: 1.2
  RBA (mean ± SD) ERβ: 0.091 ± 0.001%
[1]
  PgR and GREB1 RNA level (gene stimulation): little or no change in gene expression; also recorded: did not stimulate expression of PgR or GREB1
[2]
  block of E2-stimulated GREB1 expression: only partially
  block of E2-stimulated PgR expression: almost fully
Human ERα
  RBA (mean ± SD) ERα: 0.075 ± 0.015%
[3]
  suppression of E2-elicited increase in Ki67 mRNA: not effective in suppressing
  Ki67 RNA expression (stimulation): did not stimulate Ki67 gene expression
MCF-7 cells
  stimulation of MCF-7 cell proliferation: inactive in eliciting elevation of cell proliferation

## C[C@]12CC[C@@H]3c4ccc(O)cc4CC[C@H]3[C@@H]1CC[C@@H]2O [E2, estradiol, reference compound]
[1]
  PgR and GREB1 RNA level (gene stimulation): markedly increased

## O=C(/C=C/c1ccc(O)cc1)c1ccc(O)cc1O [Iso-Liq, Iso-liquiritigenin, reference compound]
[1]
  PgR and GREB1 RNA level (gene stimulation): markedly increased
[4]
  PI9 expression in HepG2 + ERα cells: stimulated expression
MCF-7 cells
  stimulation of MCF-7 cell proliferation: stimulated cell proliferation quite strongly

## COc1ccc(-c2coc3cc(O)ccc3c2=O)cc1O [L2, Calycosin]
Human ERβ
  ERβ/ERα ratio of RBA: 2.7
  RBA (mean ± SD) ERβ: 0.027 ± 0.004%
[1]
  PgR and GREB1 RNA level (gene stimulation): effective in increasing PgR and GREB1 expression
Human ERα
  RBA (mean ± SD) ERα: 0.010 ± 0.004%

## COc1ccc(C2COc3cc(O)ccc3C2)c(O)c1 (centres unmarked) [L4, Vestitol]
Human ERβ
  ERβ/ERα ratio of RBA: 0.6
  RBA (mean ± SD) ERβ: 0.039 ± 0.011%
[1]
  PgR and GREB1 RNA level (gene stimulation): effective in increasing PgR and GREB1 expression
[1]; efficacy nearly equivalent to E2
  potency in stimulating estrogen-regulated genes, fold less than E2: ca. 10,000 fold
Human ERα
  RBA (mean ± SD) ERα: 0.062 ± 0.008%
MCF-7 cells
  stimulation of MCF-7 cell proliferation: stimulated cell proliferation quite strongly

## COc1c(CC=C(C)C)c(O)cc2oc(=O)c(-c3ccc(O)cc3O)cc12 [L6, Glycycoumarin]
Human ERβ
  ERβ/ERα ratio of RBA: 2.4
  RBA (mean ± SD) ERβ: 0.040 ± 0.001%
[1]
  PgR and GREB1 RNA level (gene stimulation): effective in increasing PgR and GREB1 expression
Human ERα
  RBA (mean ± SD) ERα: 0.017 ± 0.001%
[3]
  Ki67 RNA expression (stimulation): all compounds except for L1, L5, L6 and L7 increased Ki67 RNA expression

## C[C@]12CC[C@@H]3c4ccc(O)cc4C[C@@H](CCCCCCCCC[S+]([O-])CCCC(F)(F)C(F)(F)F)[C@H]3[C@@H]1CC[C@@H]2O (some centres unmarked) [ICI 182,780, reference compound]
[3]; 10^−6 M ICI 182,780, 24 h
  effect of antiestrogen cotreatment on increases in Ki67 RNA expression: eliminated
